Laboratory results taken from US20260356840A1, “[1,2,4]TRIAZOLO[1,5-A]PYRIMIDINONE WRN INHIBITORS” (Nimbus Wadjet, Inc., priority 2023, published 2026).

The compounds below were run against T1, human Werner helicase (Uniprot Q14191, amino acids 517-1235 with L1074F point mutation), WRN-BV08 (Homo sapiens, UniProt Q14191, L1074F) (assay: WRN (BV08) ADP-Glo Assay).
T1 construct: Uniprot Q14191, amino acids 517-1235 with L1074F point mutation; TEV cleavable 8xHis tag (C, cleaved yes); made in house; host or cells: Sf9 insect cells (baculovirus, pFastBac)
T1 sequence (Q14191 517-1235 L1074F): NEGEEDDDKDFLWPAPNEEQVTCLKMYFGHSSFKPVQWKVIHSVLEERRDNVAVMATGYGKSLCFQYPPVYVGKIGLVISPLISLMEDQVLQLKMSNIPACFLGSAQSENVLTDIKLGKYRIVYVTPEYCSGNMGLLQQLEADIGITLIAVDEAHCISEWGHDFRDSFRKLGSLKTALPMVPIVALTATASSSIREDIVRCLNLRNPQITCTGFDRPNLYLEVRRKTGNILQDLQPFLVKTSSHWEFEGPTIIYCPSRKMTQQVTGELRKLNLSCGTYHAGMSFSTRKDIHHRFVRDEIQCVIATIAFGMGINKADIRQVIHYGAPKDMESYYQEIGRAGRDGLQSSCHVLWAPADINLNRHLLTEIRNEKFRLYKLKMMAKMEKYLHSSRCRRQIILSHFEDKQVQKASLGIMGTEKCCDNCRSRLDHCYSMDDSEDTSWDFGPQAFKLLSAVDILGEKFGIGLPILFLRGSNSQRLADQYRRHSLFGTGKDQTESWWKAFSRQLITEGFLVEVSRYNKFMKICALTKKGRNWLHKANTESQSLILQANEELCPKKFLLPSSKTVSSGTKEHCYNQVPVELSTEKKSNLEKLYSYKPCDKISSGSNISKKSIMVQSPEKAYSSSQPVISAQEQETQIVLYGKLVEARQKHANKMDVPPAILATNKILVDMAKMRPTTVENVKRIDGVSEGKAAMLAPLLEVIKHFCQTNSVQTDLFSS
Assay type: biochemical

IC50 | Structure (SMILES)
5 to 50 nM | CCc1c(N2CCN(C(=O)c3nnc(C)s3)CC2)c(=O)n2nc(C3=CCOCC3)nc2n1CC(=O)Nc1ccc(C(F)(F)F)cc1Cl [Compound I-41, N-[2-chloro-4-(trifluoromethyl)phenyl]-2-[2-(3,6-dihydro-2H-pyran-4-yl)-5-ethyl-6-[4-(5-methyl-1,3,4-thiadiazole-2-carbonyl)piperazin-1-yl]-7-oxo-4H,7H-[1,2,4]triazolo[1,5-a]pyrimidin-4-yl]acetamide]
50 to 100 nM | CCc1c(N2CCN(C(=O)c3ncc(C)s3)CC2)c(=O)n2nc(-c3ccnc(OC)c3)nc2n1CC(=O)Nc1ccc(C(F)(F)F)cc1Cl [Compound I-58, N-[2-chloro-4-(trifluoromethyl)phenyl]-2-[5-ethyl-2-(2-methoxypyridin-4-yl)-6-[4-(5-methyl-1,3-thiazole-2-carbonyl)piperazin-1-yl]-7-oxo-4H,7H-[1,2,4]triazolo[1,5-a]pyrimidin-4-yl]acetamide]
< 5 nM | CCc1c(N2CCN(C(=O)c3cn(C)[nH]c3=O)CC2)c(=O)n2nc(C3=CCOCC3)nc2n1CC(=O)Nc1ccc(C(F)(F)F)cc1Cl [Compound I-11, N-[2-chloro-4-(trifluoromethyl)phenyl]-2-[2-(3,6-dihydro-2H-pyran-4-yl)-5-ethyl-6-[4-(3-hydroxy-1-methyl-1H-pyrazole-4-carbonyl)piperazin-1-yl]-7-oxo-4H,7H-[1,2,4]triazolo[1,5-a]pyrimidin-4-yl]acetamide]
50 to 100 nM | CCc1c(N2CCC3C2CCN3C(=O)c2cnn(C)c2)c(=O)n2nc(C3=CCOCC3)nc2n1CC(=O)Nc1ccc(C(F)(F)F)cc1Cl (stereo not drawn) [Compound I-68, N-[2-chloro-4-(trifluoromethyl)phenyl]-2-[2-(3,6-dihydro-2H-pyran-4-yl)-5-ethyl-6-[4-(1-methyl-1H-pyrazole-4-carbonyl)-octahydropyrrolo[3,2-b]pyrrol-1-yl]-7-oxo-4H,7H-[1,2,4]triazolo[1,5-a]pyrimidin-4-yl]acetamide]
5 to 50 nM | CCc1c(N2CCN(C(=O)c3ccnc(OC)c3O)CC2)c(=O)n2nc(C3=CCOCC3)nc2n1CC(=O)Nc1ccc(C(F)(F)F)cc1Cl [Compound I-34, N-[2-chloro-4-(trifluoromethyl)phenyl]-2-[2-(3,6-dihydro-2H-pyran-4-yl)-5-ethyl-6-[4-(3-hydroxy-2-methoxypyridine-4-carbonyl)piperazin-1-yl]-7-oxo-4H,7H-[1,2,4]triazolo[1,5-a]pyrimidin-4-yl]acetamide]
5 to 50 nM | CCc1c(N2CCN(C(=O)c3cnn(C)c3)CC2)c(=O)n2nc(-c3cc(OC)ncn3)nc2n1CC(=O)Nc1ccc(C(F)(F)F)cc1Cl [Compound I-71, N-[2-chloro-4-(trifluoromethyl)phenyl]-2-[5-ethyl-2-(6-methoxypyrimidin-4-yl)-6-[4-(1-methyl-1H-pyrazole-4-carbonyl)piperazin-1-yl]-7-oxo-4H,7H-[1,2,4]triazolo[1,5-a]pyrimidin-4-yl]acetamide]
< 5 nM | CCc1c(N2CCN(C(=O)c3ncc4c(c3O)OCC4)CC2)c(=O)n2nc(-c3ccnc(OC)c3)nc2n1CC(=O)Nc1ccc(C(F)(F)F)cc1Cl [Compound I-86, N-[2-chloro-4-(trifluoromethyl)phenyl]-2-[5-ethyl-6-(4-{7-hydroxy-2H,3H-furo[3,2-c]pyridine-6-carbonyl}piperazin-1-yl)-2-(2-methoxypyridin-4-yl)-7-oxo-4H,7H-[1,2,4]triazolo[1,5-a]pyrimidin-4-yl]acetamide]
5 to 50 nM | CCc1c(N2CCN(C(=O)c3ccnc(C)c3O)CC2)c(=O)n2nc(C3=CCOCC3)nc2n1CC(=O)Nc1ccc(C(F)(F)F)cc1Cl [Compound I-5, N-[2-chloro-4-(trifluoromethyl)phenyl]-2-[2-(3,6-dihydro-2H-pyran-4-yl)-5-ethyl-6-[4-(3-hydroxy-2-methylpyridine-4-carbonyl)piperazin-1-yl]-7-oxo-4H,7H-[1,2,4]triazolo[1,5-a]pyrimidin-4-yl]acetamide]
5 to 50 nM | CCc1c(N2CCN(C(=O)c3cnc(C)o3)CC2)c(=O)n2nc(-c3ccnc(OC)c3)nc2n1CC(=O)Nc1ccc(C(F)(F)F)cc1Cl [Compound I-67, N-[2-chloro-4-(trifluoromethyl)phenyl]-2-[5-ethyl-2-(2-methoxypyridin-4-yl)-6-[4-(2-methyl-1,3-oxazole-5-carbonyl)piperazin-1-yl]-7-oxo-4H,7H-[1,2,4]triazolo[1,5-a]pyrimidin-4-yl]acetamide]
5 to 50 nM | CCc1c(N2CCN(C(=O)c3ncnc(C)c3O)CC2)c(=O)n2nc(-c3ccc(OC)nc3)nc2n1CC(=O)Nc1ccc(C(F)(F)F)cc1Cl [Compound I-22, N-[2-chloro-4-(trifluoromethyl)phenyl]-2-{5-ethyl-6-[4-(5-hydroxy-6-methylpyrimidine-4-carbonyl)piperazin-1-yl]-2-(6-methoxypyridin-3-yl)-7-oxo-4H,7H-[1,2,4]triazolo[1,5-a]pyrimidin-4-yl}acetamide]
5 to 50 nM | CCc1c(N2CCN(C(=O)c3cnn(C)c3)CC2)c(=O)n2nc(-c3cnc(OC)nc3)nc2n1CC(=O)Nc1ccc(C(F)(F)F)cc1Cl [Compound I-51, N-[2-chloro-4-(trifluoromethyl)phenyl]-2-[5-ethyl-2-(2-methoxypyrimidin-5-yl)-6-[4-(1-methyl-1H-pyrazole-4-carbonyl)piperazin-1-yl]-7-oxo-4H,7H-[1,2,4]triazolo[1,5-a]pyrimidin-4-yl]acetamide]
5 to 50 nM | CCc1c(N2CCN(C(=O)c3ncnc(C)c3O)CC2)c(=O)n2nc(-c3ccnc(OC(F)F)c3)nc2n1CC(=O)Nc1ccc(C(F)(F)F)cc1Cl [Compound I-44, N-[2-chloro-4-(trifluoromethyl)phenyl]-2-{2-[2-(difluoromethoxy)pyridin-4-yl]-5-ethyl-6-[4-(5-hydroxy-6-methylpyrimidine-4-carbonyl)piperazin-1-yl]-7-oxo-4H,7H-[1,2,4]triazolo[1,5-a]pyrimidin-4-yl}acetamide]
5 to 50 nM | CCc1c(N2CCN(C(=O)c3cccc4cccnc34)CC2)c(=O)n2nc(C3=CCOCC3)nc2n1CC(=O)Nc1ccc(C(F)(F)F)cc1Cl [Compound I-19, N-[2-chloro-4-(trifluoromethyl)phenyl]-2-[2-(3,6-dihydro-2H-pyran-4-yl)-5-ethyl-7-oxo-6-[4-(quinoline-8-carbonyl)piperazin-1-yl]-4H,7H-[1,2,4]triazolo[1,5-a]pyrimidin-4-yl]acetamide]
5 to 50 nM | CCc1c(N2CCN(C(C)=O)CC2)c(=O)n2nc(-c3ccnc(OC)c3)nc2n1CC(=O)Nc1ccc(C(F)(F)F)cc1Cl [Compound I-46, 2-[6-(4-acetylpiperazin-1-yl)-5-ethyl-2-(2-methoxypyridin-4-yl)-7-oxo-4H,7H-[1,2,4]triazolo[1,5-a]pyrimidin-4-yl]-N-[2-chloro-4-(trifluoromethyl)phenyl]acetamide]
< 5 nM | CCc1c(N2CCN(C(=O)c3c(O)noc3C)CC2)c(=O)n2nc(C3=CCOCC3)nc2n1CC(=O)Nc1ccc(C(F)(F)F)cc1Cl [Compound I-28, N-[2-chloro-4-(trifluoromethyl)phenyl]-2-[2-(3,6-dihydro-2H-pyran-4-yl)-5-ethyl-6-[4-(3-hydroxy-5-methyl-1,2-oxazole-4-carbonyl)piperazin-1-yl]-7-oxo-4H,7H-[1,2,4]triazolo[1,5-a]pyrimidin-4-yl]acetamide]
